# ChEMBL document CHEMBL3639017, “Thiazolyl mGluR5 antagonists and methods for their use” (2013)
# Target: Metabotropic glutamate receptor 5 (Rattus norvegicus, UniProt P31424)
# Assay: Binding Assay: Binding assays were performed as described in Schaffhauser H, Richards J G, Cartmell J, Chaboz S, Kemp J A, Klingelschmidt A, Messer J, Stadler H, Woltering T and Mutel V (1998) In vitro binding characteristics of a new selective group II metabotropic glutamate receptor radioligand, [3H]LY354740, in rat brain. Mol Pharmacol 53:228-233) at room temperature with slight modifications.
# Assay type: tissue-based
# Sequence of Metabotropic glutamate receptor 5 (P31424 whole entry): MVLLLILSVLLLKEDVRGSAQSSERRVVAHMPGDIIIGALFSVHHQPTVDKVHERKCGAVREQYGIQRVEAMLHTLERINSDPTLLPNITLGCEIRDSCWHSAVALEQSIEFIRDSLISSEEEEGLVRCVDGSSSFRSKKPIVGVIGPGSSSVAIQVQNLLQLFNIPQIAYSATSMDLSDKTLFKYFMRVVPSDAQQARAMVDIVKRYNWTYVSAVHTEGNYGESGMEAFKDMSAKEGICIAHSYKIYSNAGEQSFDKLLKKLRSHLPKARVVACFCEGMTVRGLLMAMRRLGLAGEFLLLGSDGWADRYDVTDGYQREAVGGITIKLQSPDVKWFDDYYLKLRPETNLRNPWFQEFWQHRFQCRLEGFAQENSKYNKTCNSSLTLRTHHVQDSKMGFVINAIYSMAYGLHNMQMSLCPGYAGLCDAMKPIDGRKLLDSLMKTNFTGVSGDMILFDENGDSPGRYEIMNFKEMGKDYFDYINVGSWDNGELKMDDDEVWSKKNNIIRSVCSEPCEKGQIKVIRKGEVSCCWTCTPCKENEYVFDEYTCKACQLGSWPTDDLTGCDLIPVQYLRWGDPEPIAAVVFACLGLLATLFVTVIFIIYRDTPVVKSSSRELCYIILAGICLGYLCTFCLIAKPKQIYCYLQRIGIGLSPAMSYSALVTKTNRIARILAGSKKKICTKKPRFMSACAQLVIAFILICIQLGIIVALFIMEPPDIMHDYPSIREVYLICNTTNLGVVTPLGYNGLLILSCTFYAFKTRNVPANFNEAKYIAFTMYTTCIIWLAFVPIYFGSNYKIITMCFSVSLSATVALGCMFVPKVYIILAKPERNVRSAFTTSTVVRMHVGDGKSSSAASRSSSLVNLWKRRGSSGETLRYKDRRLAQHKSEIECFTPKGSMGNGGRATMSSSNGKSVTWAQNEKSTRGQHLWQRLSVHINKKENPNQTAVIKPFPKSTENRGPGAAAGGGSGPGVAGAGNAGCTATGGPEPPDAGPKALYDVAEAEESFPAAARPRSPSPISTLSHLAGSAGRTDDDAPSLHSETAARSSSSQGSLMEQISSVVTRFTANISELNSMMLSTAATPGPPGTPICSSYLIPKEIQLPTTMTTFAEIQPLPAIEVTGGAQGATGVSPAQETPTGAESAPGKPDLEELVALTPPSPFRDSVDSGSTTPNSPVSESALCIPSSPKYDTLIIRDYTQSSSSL
smiles,measurement,value
Cc1nc(C#Cc2ccc(-c3ccccc3C#N)nc2)cs1,Ki,2.6 nM
